Experimental data: patent EP0304156A1, “Cyclohept b indolealkanoic acids” (MERCK FROSST CANADA INC., priority 1987, dated 1989)
Converted amounts (≈) assume the structure as drawn.

Legend:
Human platelets = test: Inhibition of induced threshold aggregation of human platelets (agonist U44069); format: cell-based; conditions: human platelet rich plasma, aggregating agent U44069; read-out: Inhibition of platelet aggregation (IC50 in mg/ml)
Description: Inhibition of Induced Threshold Aggregation of Human Platelets
Human platelet rich plasma (PRP) is prepared from venous blood of male volunteers who have taken no medication for ten days prior to test. Blood is transferred into plastic centrifuge tubes containing 3.8% Trisodium Citrate in 0.9% NaCl (in a ratio of blood to anticoagulant of 9:1), mixed by gentle inversion, and centrifuged at room temperature for ten minutes at 116 g. The supernatant (PRP) is transferred into plastic tubes. Platelet poor plasma (PPP) is obtained by centrifuging the residual blood cells at 4000 g for ten minutes. PRP is left to stand at least one half hour prior to testing.
Platelet Aggregation is measured using a Payton Aggregometer and Recorder. Following calibration of the instrument, a cuvette containing PRP (225 microliters) is incubated for three minutes at 37°C. Drug vehicle (control), or a drug concentration is then added in a volume of 0.5 microliter. After one minute, the aggregating agent (U44069, 9,11-dideoxy-9a,11a-epoxymethano PGF2a) is added to the cuvette in a volume of 25 microliters. Recording is continued until the maximal response is obtained.
The threshold (approximately 20 - 30% of maximum) aggregation concentration of the agonist to be used is first determined in the presence of the drug vehicle (control). Test compounds are then assayed at 10 or 30 micrograms/ml initially, and if active, are further tested in order to determine the concentration range at which 20-80% of the threshold aggregatory response is inhibited. All drugs are dissolved in dimethylsulfoxide.
The height of the aggregation response (measured in divisions of the recorder paper, 1 division = 2.5 mm) in the presence of the drug is recorded, and calculated as percent inhibition of the mean height of the control threshold responses. The IC₅₀ (drug concentration which inhibits 50% of the aggregatory response) is obtained by regression analysis.

[1] = test system: Guinea Pig Tracheal Chain; test: Estimation of pA2 values in guinea pig tracheal chain (contractile agonist U-44069); parameters: species or system guinea pigs; conditions: for Kb: Cavia porcellus, 5 min, guinea pig tracheal chain, agonist U-44069
Source text: Estimation of pA₂ Values in Guinea Pig Tracheal Chain
Male albino Hartley strain guinea pigs (300-350 gm) were sacrificed by a blow to the head and exsanguinated. The trachea was removed, freed of extraneous tissue and sectioned into rings of 1-2 mm thickness. Five rings were tied together in series, ensuring that the tracheal muscle lay in the same vertical plane, and the cartilage of each ring then separated at a point directly opposite the muscle. The chains were suspended under 1 gm resting tension in modified Krebs solution (NaCl, 6.87; NaHCO₃, 2.1; dextrose, 2.1; KCl, 0.32; CaCl₂, 0.28; MgSO₄, 7H₂O, 0.11; KH₂PO₄, 0.16; gm/L: equilibrated with 5% CO₂ in O₂ for 1 hour) containing indomethacin (1.4 x 10-⁵M) to suppress endogenous protaglandin synthesis, Organ bath temperature was maintained at 37°C and 5% CO₂ in O₂ diffused continously. Isometric tension changes were recorded from a Gould-Statham (UTC 2) force displacement transducer connected to a Beckman Type R Dynograph. For assay purposes initial maximal contractions were elicited with a high concentration of the contractile agonist [U-44069, 9.11-dideoxy-9a,11a-epoxymethano PGF2a] and the tissue sub sequently washed at intervals until tension returned to baseline. Agonist dose response curves were obtained using a cumulative-dose schedule (4-8 doses) and the preparations then washed at regular intervals until baseline tension was recorded. After an appropriate interval (1-1.5 hrs) agonist dose response curves were repeated in the presence of antagonist drug concentrations. […] EC₅₀ values were obtained by regression analysis and used to calculate 'apparent' and Schild Plot pA₂ values by the method of Tallarida and Murray 1981.

[2] = relative to compound 2 (so in the source)

Compound | IC50 (Human platelets) | Kb [1] | pA2 lower than that of compound 2 [1, 2] | potency factor corresponding to the pA2 difference [1, 2]
O=C(O)CC1CCCc2c(n(Cc3ccc(Cl)cc3)c3ccc(F)cc23)C1 (stereo not shown) [Compound 1, 2-Fluoro-5-(p-chlorobenzyl)-5,6,7,8,9,10-hexahydrocyclo hept[b]indole-7-acetic acid] | 0.05 µg/mL (≈ 0.13 µM) | 0.00316 µM | – | –
O=C(O)CC1CCCCc2c1c1cc(F)ccc1n2Cc1ccc(Cl)cc1 (stereo not shown) [Compound 2, 2-Fluoro-5-(p-chlorobenzyl)-5,6,7,8,9,10-hexahydrocyclo hept[b]indole-10-acetic acid] | 4.5 µg/mL (≈ 11.7 µM) | 0.0427 µM | – | –
O=C(O)C1CCCc2c(n(Cc3ccc(Cl)cc3)c3ccc(F)cc23)C1 (stereo not shown) [Compound 3, 2-Fluoro-5-(p-chlorobenzyl)-5,6,7,8,9,10-hexahydrocyclo hept[b]indole-7-carboxylic acid] | 7.46 µg/mL (≈ 20.1 µM) | 0.129 µM | – | –
O=C(O)CC1CCCCc2c1n(Cc1ccc(Cl)cc1)c1ccc(F)cc21 (stereo not shown) [Compound 4, 2-Fluoro-5-(p-chlorobenzyl)-5,6,7,8,9,10-hexahydrocyclohept[b]indole-6-acetic acid] | 0.015 µg/mL (≈ 0.0389 µM) | 0.00135 µM | – | –
CS(=O)(=O)c1ccc(Cn2c3c(c4cc(F)cc(F)c42)CCCC(CC(=O)O)C3)cc1 (stereo not shown) [Compound 36, 2,4-Difluoro-5(p-methylsulfonylbenzyl)-5,6,7,8,9,10-hexahydrocyclohept[b]indole-7-acetic acid] | 0.012 µg/mL (≈ 0.0268 µM) | 0.00832 µM | – | –
COc1ccc2c(c1)c1c(n2Cc2ccc(Cl)cc2)CC(CC(=O)O)CC1 (stereo not shown) [Compound A, reference compound] | 3.5 µg/mL (≈ 9.12 µM) | 0.158 µM | 1.7 log units | 15
COc1ccc2c(c1)c1c(n2Cc2ccc(Cl)cc2)CC(C(=O)O)CC1 (stereo not shown) [Compound B, reference compound] | > 30 µg/mL | 0.158 µM | – | –
